Experiments:
[1] = Storage at 25 °C with constant exposure to the air; type: physicochemical
Procedure: The figures also show the separation of PGF2α and its 15-epimer. […] In FIGS. 4, 4a and 4b, all injections represent 100 μg of PGF2α initial samples.

[2] = physchem
Procedure: A weighed sample was diluted with dioxane to produce a solution which was 10μg PGF2α /μl of solution. This solution was used to calibrate the response of the differential refractometer of a Waters Assoc. Model 100 high pressure liquid chromatograph (h.p.l.c.). The calibration appears in FIG. 1. FIG. 1, the PGF2α peak height conditions are as follows: column 4 feet ×0.125 inches o.d., column of Corasil -II. Solvent 0.2% HOAc/EtOAc wherein the former is acetic acid and the latter is ethyl acetate. Flow 0.9ml/min. Reaction times: dioxane front appears at […]. PGF2α at 14 min. from injection corresponding to column void volume after void volume displacement. The numbers on the x-axis are μg injected and the numbers along the y-axis indicate detector response in inches at peak heights.
Weighed samples, 0.5-1.0 mg. ± 0.03 mg, of PGF2α and crystalline racemic PGF2α were placed in 1 dram vials. These vials were randomly divided between storage at -20° C under argon and storage at 41 ± 2°, open to the air, in a sand bath. At stipulated times samples were removed from both types of storage, diluted to 10μg PGF2α /μl, and assayed by h.p.l.c. […] Individual assays of 41° C stored samples are collected in FIG. 2. […] The open symbols are for racemic PGF2α and the closed symbols are for nat. PGF2α. The different symbols are used to indicate different samples. Replicate analysis appear as multiple used of the same symbols at any one time. […] The numbers along the x-axis are days at 41 ± 2° C and along the y-axis are percents.
Since, prostaglandins, including the dienoics, are known to be unstable, as they undergo autoxidation on exposure to air. Methods of Biochemical Analysis, Vol. 17, pages 325 to 371, 1969, published by Interscience Publishers, New York.
FIGS. 3, 3a and 3b show the traces from rapid analysis, (at 1 ml/min.). […] In FIGS. 4, 4a and 4b, all injections represent 100 μg of PGF2α initial samples.

[3] = Storage at -20 °C under argon, h.p.l.c. assay; type: physicochemical; conditions: samples taken at stipulated times
Procedure: Natural 9α,11α,15(S)-trihydroxy-5-cis,13-trans-prostadienoic acid, natural PGF2α, prepared from total synthesis was a soft, waxy semi-crystalline compound melting in the range of 25°-32°. […] The calibration appears in FIG. 1. FIG. 1, the PGF2α peak height conditions are as follows: column 4 feet ×0.125 inches o.d., column of Corasil -II. […] Flow 0.9ml/min. Reaction times: dioxane front appears at 30 min.
Weighed samples, 0.5-1.0 mg. ± 0.03 mg, of PGF2α and crystalline racemic PGF2α were placed in 1 dram vials. These vials were randomly divided between storage at -20° C under argon and storage at 41 ± 2°, open to the air, in a sand bath. […] In FIG. 2, the loss of PGF2α on storage open to air at 41 ± 2° C is set forth. […] PGF2α. The different symbols are used to indicate different samples. […] The numbers along the x-axis are days at 41 ± 2° C and along the y-axis are percents. The crystalline racemate assayed 103 ± 3% based on the natural compound.

Structure (SMILES): CCCCC[C@H](O)/C=C/[C@@H]1[C@@H](C/C=C\CCCC(=O)O)[C@@H](O)C[C@H]1O (relative stereo) [Polymorph II, crystalline racemic 9α,11α,15(S)-trihydroxy-5-cis,13-trans-prostadienoic acid]
- crystalline loss on storage ([1]; 25 °C, constant exposure to the air, after more than one year): without any evidence of crystalline loss after more than one year
- long term storage stability (overall finding) [2]: superior long term storage stability
- change after storage ([2]; after 14 days, open to air at 41 ± 2 °C): unchanged after 14 days
- assay of crystalline racemate based on the natural compound ([2]; h.p.l.c., differential refractometer, based on natural PGF2α): 103 ± 3%
- degraded ([2]; storage open to air): 3%
- assay by h.p.l.c. against fresh standards after storage [3]: within experimental error of fresh standards (±6%)

Structure (SMILES): CCCCC[C@H](O)/C=C/[C@@H]1[C@@H](C/C=C\CCCC(=O)O)[C@@H](O)C[C@H]1O [oily PGF2α, reference compound]
- course of degradation by oxidation [2]: degrades by oxidation rapidly at first suggestive of a surface reaction, and then more slowly
- measured half life of degradation by oxidation [2]: 17 days

Structure (SMILES): CCCCC[C@H](O)/C=C/[C@@H]1[C@@H](C/C=C\CCCC(=O)O)[C@@H](O)C[C@H]1O (relative stereo) [Polymorph I, racemic 9α,11α,15(S)-trihydroxy-5-cis,13-trans-prostadienoic acid]
- extent of oxidation ([1]; in 17 days, stated for comparison ("would be")): over half oxidized in 17 days

Structure (SMILES): CCCCC[C@H](O)/C=C/[C@@H]1[C@@H](C/C=C\CCCC(=O)O)[C@@H](O)C[C@H]1O [PGF2α, Natural 9α,11α,15(S)-trihydroxy-5-cis,13-trans-prostadienoic acid, reference compound]
- identity of degradation products versus 15-epi-PGF2α [2]: Neither of the degradation products seen in the PGF2α sample stored 9 days at 41 °C corresponds to 15-epi-PGF2α
- assay by h.p.l.c. against fresh standards after storage [3]: within experimental error of fresh standards (±6%)

From patent US3940438A, “Crystalline racemic 9α,11α,15(S)-trihydroxy-5-cis,13-trans-prostadienoic acid” (priority 1973, dated 1976)
